Results reported in patent publication US10294202B2, “Pyrrolidinones as herbicides” (FMC Corporation, priority 2013, dated 2019).

Legend:
wheat = assay: Test A pre-/postemergence herbicide test; assay type: in vivo, Triticum aestivum; settings: Postemergence; for Plant response rating, Wheat: 125 g ai/ha; for Wheat plant response rating (0 to 100 scale, 0 is no effect, 100 is complete control): 500 g ai/ha
Summary of the method: (§1)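 Greenhouse pot test with pre- and postemergence application of surfactant-containing solvent formulations. Postemergence plants were 2–10 cm, one- to two-leaf stage. Response scored visually after ~10 days, 0 (no effect) to 100 (complete control).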

blackgrass = assay: Test A postemergence herbicide test; assay type: in vivo, Alopecurus myosuroides
Summary of the method: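 Injury was rated visually about 10 days after treatment on a 0 (no effect) to 100 (complete control) scale, compared with untreated plants. Test chemicals were sprayed postemergence onto greenhouse plants 2–10 cm high at one to two leaves, grown in a loam–sand blend.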

ryegrass, Italian = assay: Test A pre-/postemergence herbicide test; assay type: in vivo, Lolium multiflorum
Summary of the method: as §1

corn = assay: Test A pre-/postemergence herbicide test; assay type: in vivo, Zea mays; settings: Postemergence
Summary of the method: as §1

pigweed = assay: Test A pre-/postemergence herbicide test; assay type: in vivo, Amaranthus retroflexus
Summary of the method: as §1

giant foxtail = assay: Test A pre-/postemergence herbicide test; assay type: in vivo, Setaria faberii
Summary of the method: as §1

kochia = assay: Test A pre-/postemergence herbicide test; assay type: in vivo, Kochia scoparia
Summary of the method: as §1

barnyardgrass = assay: Test A pre-/postemergence herbicide test; assay type: in vivo, Echinochloa crus-galli
Summary of the method: as §1

ragweed = assay: Test A pre-/postemergence herbicide test; assay type: in vivo, Ambrosia elatior
Summary of the method: as §1

galium = assay: Test A postemergence herbicide test; assay type: in vivo, Galium aparine; settings: for Plant response rating, Galium: 125 g ai/ha; for Galium plant response rating (0 to 100 scale, 0 is no effect, 100 is complete control): 500 g ai/ha
From the text: At the same time, plants selected from these crop and weed species and also blackgrass (Alopecurus myosuroides), and galium (catchweed bedstraw, Galium aparine) were planted in pots containing the same blend of loam soil and sand and treated with postemergence applications of test chemicals formulated in the same manner. Plants ranged in height from 2 to 10 cm and were in the one- to two-leaf stage for the postemergence treatment. Treated plants and untreated controls were maintained in a greenhouse for approximately 10 days, after which time all treated plants were compared to untreated controls and visually evaluated for injury. Plant response ratings, summarized in Table A, are based on a 0 to 100 scale where 0 is no effect and 100 is complete control. A dash (-) response means no test result.

[1] = 0 to 100 scale, 0 is no effect, 100 is complete control
[2] = 125 g ai/ha, 0 to 100 scale, 0 is no effect, 100 is complete control
[3] = 125 g ai/ha, visual rating, 0 to 100 scale, 0 no effect, 100 complete control, approximately 10 days, preemergence
[4] = Postemergence, 125 g ai/ha, 0 to 100 scale, 0 is no effect, 100 is complete control
[5] = preemergence, 500 g ai/ha, 0 to 100 scale, 0 is no effect and 100 is complete control
[6] = visual rating on 0 to 100 scale (0 no effect, 100 complete control), approx. 10 days
[7] = 125 g ai/ha, visual rating on 0 to 100 scale (0 no effect, 100 complete control), approx. 10 days
[8] = 500 g ai/ha, 0 to 100 scale (0 no effect, 100 complete control)
[9] = Postemergence, 125 g ai/ha, visual rating on 0 to 100 scale (0 no effect, 100 complete control), approx. 10 days
[10] = Preemergence, 125 g ai/ha, 0 to 100 scale where 0 is no effect and 100 is complete control
[11] = Preemergence, 500 g ai/ha, visual rating on 0 to 100 scale (0 no effect, 100 complete control)
[12] = Postemergence, 500 g ai/ha, 0 to 100 scale (0 no effect, 100 complete control)

Cc1ccc(F)c(NC(=O)C2C(=O)NCC2c2cccc(C(F)(F)F)c2)c1 (racemic) [Compound 183]
0: Plant response rating, Wheat (wheat; [1]) | Wheat plant response rating (0 to 100 scale, 0 is no effect, 100 is complete control) (wheat) | Plant response rating, Blackgrass (blackgrass; [2]) | Blackgrass plant response rating (0 to 100 scale, 0 is no effect, 100 is complete control) (blackgrass; 500 g ai/ha) | Plant response rating, Ryegrass, Italian (ryegrass, Italian; [3]) | Plant response rating, Ryegrass, Italian (ryegrass, Italian; [4]) | Ryegrass, Italian plant response rating (0 to 100 scale, 0 is no effect, 100 is complete control) (ryegrass, Italian; Postemergence, 500 g ai/ha) | Plant response rating, Ryegrass, Italian (ryegrass, Italian; [5]) | Plant response rating, Corn (corn; [2]) | Corn plant response rating (0 to 100 scale, 0 is no effect, 100 is complete control) (corn; 500 g ai/ha) | Plant response rating, Pigweed (pigweed; [3]) | Plant response rating, Pigweed (pigweed; [4]) | Pigweed plant response rating (0 to 100 scale, 0 is no effect, 100 is complete control) (pigweed; Postemergence, 500 g ai/ha) | Plant response rating, Pigweed (pigweed; [5]) | Plant response rating, Foxtail, Giant (giant foxtail; [3]) | Plant response rating, Foxtail, Giant (giant foxtail; [4]) | Foxtail, Giant plant response rating (0 to 100 scale, 0 is no effect, 100 is complete control) (giant foxtail; Postemergence, 500 g ai/ha) | Plant response rating, Foxtail, Giant (giant foxtail; [5]) | Plant response rating, Kochia (kochia; [3]) | Plant response rating, Kochia (kochia; [4]) | Kochia plant response rating (0 to 100 scale, 0 is no effect, 100 is complete control) (kochia; Postemergence, 500 g ai/ha) | Plant response rating, Kochia (kochia; [5]) | Plant response rating, Barnyardgrass (barnyardgrass; [3]) | Plant response rating, Barnyardgrass (barnyardgrass; [4]) | Barnyardgrass plant response rating (0 to 100 scale, 0 is no effect, 100 is complete control) (barnyardgrass; Postemergence, 500 g ai/ha) | Plant response rating, Barnyardgrass (barnyardgrass; [5]) | Plant response rating, Ragweed (ragweed; [3]) | Plant response rating, Ragweed (ragweed; [4]) | Ragweed plant response rating (0 to 100 scale, 0 is no effect, 100 is complete control) (ragweed; Postemergence, 500 g ai/ha) | Plant response rating, Ragweed (ragweed; [5]) | Plant response rating, Galium (galium; [1]) | Galium plant response rating (0 to 100 scale, 0 is no effect, 100 is complete control) (galium)

Cc1cc(NC(=O)C2C(=O)NCC2c2cccc(C(F)(F)F)c2)ccc1F (racemic) [Compound 185]
90: Plant response rating, Foxtail, Giant (giant foxtail; [5])
70: Plant response rating, Foxtail, Giant (giant foxtail; [3]) | Plant response rating, Barnyardgrass (barnyardgrass; [5])
0: Plant response rating, Wheat (wheat; [1]) | Plant response rating, Blackgrass (blackgrass; [2]) | Plant response rating, Ryegrass, Italian (ryegrass, Italian; [3]) | Plant response rating, Ryegrass, Italian (ryegrass, Italian; [4]) | Ryegrass, Italian plant response rating (0 to 100 scale, 0 is no effect, 100 is complete control) (ryegrass, Italian; Postemergence, 500 g ai/ha) | Plant response rating, Corn (corn; [2]) | Plant response rating, Pigweed (pigweed; [3]) | Plant response rating, Pigweed (pigweed; [4]) | Pigweed plant response rating (0 to 100 scale, 0 is no effect, 100 is complete control) (pigweed; Postemergence, 500 g ai/ha) | Plant response rating, Kochia (kochia; [3]) | Plant response rating, Kochia (kochia; [4]) | Kochia plant response rating (0 to 100 scale, 0 is no effect, 100 is complete control) (kochia; Postemergence, 500 g ai/ha) | Plant response rating, Ragweed (ragweed; [3]) | Plant response rating, Ragweed (ragweed; [4]) | Ragweed plant response rating (0 to 100 scale, 0 is no effect, 100 is complete control) (ragweed; Postemergence, 500 g ai/ha) | Plant response rating, Ragweed (ragweed; [5]) | Plant response rating, Galium (galium; [1]) | Galium plant response rating (0 to 100 scale, 0 is no effect, 100 is complete control) (galium)
40: Plant response rating, Kochia (kochia; [5]) | Plant response rating, Barnyardgrass (barnyardgrass; [3]) | Plant response rating, Barnyardgrass (barnyardgrass; [4])
80: Foxtail, Giant plant response rating (0 to 100 scale, 0 is no effect, 100 is complete control) (giant foxtail; Postemergence, 500 g ai/ha) | Barnyardgrass plant response rating (0 to 100 scale, 0 is no effect, 100 is complete control) (barnyardgrass; Postemergence, 500 g ai/ha)
20: Wheat plant response rating (0 to 100 scale, 0 is no effect, 100 is complete control) (wheat) | Blackgrass plant response rating (0 to 100 scale, 0 is no effect, 100 is complete control) (blackgrass; 500 g ai/ha) | Plant response rating, Ryegrass, Italian (ryegrass, Italian; [5]) | Corn plant response rating (0 to 100 scale, 0 is no effect, 100 is complete control) (corn; 500 g ai/ha) | Plant response rating, Pigweed (pigweed; [5]) | Plant response rating, Foxtail, Giant (giant foxtail; [4])

CC(C)(C)c1cccc(C2CNC(=O)C2C(=O)Nc2ccccc2F)c1 (stereo not drawn) [Compound 347]
50: Plant response rating, Barnyardgrass (barnyardgrass; [9]) | Plant response rating, Barnyardgrass (barnyardgrass; [12]) | Plant response rating, Barnyardgrass (barnyardgrass; [10])
40: Foxtail, Giant plant response rating (giant foxtail; [11])
90: Barnyardgrass plant response rating (barnyardgrass; [11])
0: Plant response rating, Wheat (wheat; [6]) | Plant response rating, Blackgrass (blackgrass; [7]) | Plant response rating, Blackgrass (blackgrass; [8]) | Plant response rating, Ryegrass, Italian (ryegrass, Italian; [9]) | Plant response rating, Ryegrass, Italian (ryegrass, Italian; [10]) | Ryegrass, Italian plant response rating (ryegrass, Italian; [11]) | Plant response rating, Corn (corn; [7]) | Plant response rating, Corn (corn; [8]) | Plant response rating, Pigweed (pigweed; [9]) | Plant response rating, Pigweed (pigweed; [10]) | Pigweed plant response rating (pigweed; [11]) | Plant response rating, Kochia (kochia; [9]) | Plant response rating, Kochia (kochia; [10]) | Kochia plant response rating (kochia; [11]) | Plant response rating, Ragweed (ragweed; [9]) | Plant response rating, Ragweed (ragweed; [10]) | Ragweed plant response rating (ragweed; [11]) | Plant response rating, Galium (galium; [6])
20: Plant response rating, Foxtail, Giant (giant foxtail; [9]) | Plant response rating, Foxtail, Giant (giant foxtail; [12]) | Plant response rating, Foxtail, Giant (giant foxtail; [10])
